# Measured values published in US9464106B2, “Oligonucleotides useful for detecting and analyzing nucleic acids of interest” (Exiqon A/S, priority 2002, dated 2016).
# Read-outs that look alike come from different tables or passages of the source. l = locked nucleic acid (LNA); [5mC] = 5-methylcytosine; {Biotin} = biotin label; d = 2'-deoxy (DNA)
# Columns and labels:
# [1] = test system: DNA target 3′-d(CACTYTACG); details: data reported earlier; cited from earlier work
# human telomere repeat = experiment: FISH with human telomere repeat LNA probe; format: binding; details: 5 pmoles probe, 30 min. hybridization at 37° C.
# Method: Chromosome preparations were made by standard methods from peripheral lymphocyte cultures of two normal males. Slides were prepared 1-6 days prior to an experiment and treated with RNAse (10 μg/μl) at 37° C. for one hour before hybridization. […] FISH was carried out as described previously (Silahtaroglu et al, 1998) with the following modifications. […] Slides were washed after 30 min. hybridization at 37° C. Post washing steps included a 2×5 min 0.1×SSC at 60° C.; 5 min 2×SSC at 37° C.; 3 min 4×SSC/0.05% Tween20 at 37° C. and 5 min PBS. […] The whole procedure was carried out in the dark. The signals were visualized using a Leica DMRB epifluorescence microscope equipped with a SenSys charge-coupled device camera (Photometrics, Tucson, Ariz.), and IPLAB Spectrum Quips FISH software (Applied Imaging international Ltd., Newcastle, UK).
# [2] = test system: splice variant #1 and #2 transcripts spiked into C. elegans total RNA; experiment: Splice variant ratio detection with merged LNA block capture probes (Example 9); format: binding; details: signal ratio KU007/KU008, Cy5, normalized
# [3] = test system: DNA target 3′-d(CACTYTACG); experiment: Thermal denaturation of ON1-ON11 towards DNA complements; format: binding; details: 1.5 μM of the two strands
# [4] = test system: human chromosome 21 alphaRI (680) locus alpha-satellite repeat; experiment: FISH with chromosome-21 specific centromere LNA probes; format: binding; details: 40 min. hybridization at RT
# [5] = test system: C. elegans genes relevant for general stress response and metabolism of toxic compounds
# [6] = C. elegans, incubation 24 hours
molecule,measurement,setting,value
5′-d(GTGATATGC) [ON1],"Tm, Y = A",[1],28 °C
same,"Tm, Y = C",[1],11 °C
same,"Tm, Y = G",[1],12 °C
same,"Tm, Y = T",[1],19 °C
ttagggttagggttagggttaggg [human telomere repeat specific LNA oligonucleotide probe] (TTAGGGTTAGGGTTAGGGTTAGGG),FISH signals on telomeres,human telomere repeat,prominent signals on the telomeres
"gtccagtatcgtccatcatAGTATcgataaatatgtgaaggaaatgcctg (as printed in the source, key not given here) [gene78.mINS303_50_block]",Observed ratio (log2) with merged LNA block capture probes,[2],3.11
"Nc1ncc2ncn([C@@H]3O[C@@]4(CO)CO[C@@H]3[C@@H]4O)c2n1 [compound 23, (1S,3R,4R,7S)-3-(2-aminopurin-9-yl)-7-hydroxy-1-hydroxymethyl-2,5-dioxabicyclo[2.2.1]heptane]",melting point,,227.5 to 229 °C (dec.)
"5′-d[2′-OMe(GTGATATGC)] [ON5, reference compound]","Tm, Y = A","[3]; 10 mM sodium phosphate, 100 mM sodium chloride, 0.1 mM EDTA, pH 7.0",35 °C
same,"Tm, Y = C",[3]; medium salt buffer,14 °C
same,"Tm, Y = G",[3]; medium salt buffer,19 °C
same,"Tm, Y = T",[3]; medium salt buffer,21 °C
"aCcCaGcCaAaGgAg (ACCCAGCCAAAGGAG; sugars from the 5' end dldldldldldldld, 5' {Biotin}, backbone and methylation of C not given here) [5′ biotin-labelled 15-mer FISH probe]",FISH signals on chromosomes,[4],prominent signals on chromosome 21
"gene78.m0103: merged probe corresponding to the exon 01-exon 03 border (DNA CACAACACTGCCCAGAGGTTCAATCGATAAATATGTGAAGGAAATGCCTG; listed as DNA, chemistry not fully specified)",Observed ratio (log2) with merged LNA block capture probes,[2],−0.24
"caacactgcccagaggttcaatcGATmCmCgatgatcctaatgaaggcgccc (CAACACTGCCCAGAGGTTCAATCGATCCGATGATCCTAATGAAGGCGCCC; sugars from the 5' end d23 l5 d22, [5mC] at 27, 28, backbone not given here; further chemistry not fully specified) [gene78.m01INS3_50_block]",Observed ratio (log2) with merged LNA block capture probes,[2],2.93
"gaaggcgaaggagactgctAATATcgataaatatgtgaaggaaatgcctg (as printed in the source, key not given here) [gene78.mINS403_50_block]",Observed ratio (log2) with merged LNA block capture probes,[2],−0.86
Cc1c(OCC(F)(F)F)ccnc1C[S+]([O-])c1nc2ccccc2[nH]1 (centres unmarked) [Lansoprazole],"Log2 transformed fold of change, HSP90 (C47E8.5)",[5]; [6],−1.17
same,"Log2 transformed fold of change, Ubiquitin (M7.1)",[5]; [6],−0.12
same,"Log2 transformed fold of change, CYP37A (F01D5.9)",[5]; in vivo,0.98
"TgTgTaCcCaGcCaAaGgAgTtGa (TGTGTACCCAGCCAAAGGAGTTGA; sugars from the 5' end ldldldldldldldldldldldld, 5' {Biotin}, backbone and methylation of C not given here) [5′ biotin-labelled 24-mer FISH probe]",FISH signals on chromosomes,[4],prominent signals both on chromosomes 13 and 21
"caacactgcccagaggttcaatcGATGTgtgataggatcagtgttcaggg (CAACACTGCCCAGAGGTTCAATCGATGTGTGATAGGATCAGTGTTCAGGG; sugars from the 5' end d23 l5 d22, backbone not given here; further chemistry not fully specified) [gene78.m01INS4_50_block]",Observed ratio (log2) with merged LNA block capture probes,[2],−2.39
